In this experiment the test system is production of tumor necrosis factor (TNF) by monocytes activated with bacterial lipopolysaccharide (LPS). In words: Lipopolysaccharide-activated Monocyte TNF Production Assay. It counts as cell-based. The note with it: Homo sapiens, TNF in culture supernatants by ELISA, read-out: IC50 (concentration of test compounds causing a 50% reduction in TNF production). The protocol: Lipopolysaccharide-activated Monocyte TNF Production Assay
Test compounds were evaluated in vitro for the ability to inhibit the production of tumor necrosis factor (TNF) by monocytes activated with bacterial lipopolysaccharide (LPS). Fresh residual source leukocytes (a byproduct of plateletpheresis) were obtained from the local blood bank and peripheral blood mononuclear cells (PBMCs) were isolated by density gradient centrifugation on Ficol-Paque Plus (Pharmacia). PBMCs were suspended at 2×10^6/ml in DMEM supplemented to contain 2% FCS (10 mM), 0.3 mg/ml glutamate, 100 U/ml penicillin G and […] streptomycin sulfate (complete media). Cells were plated into Falcon flatbottom 96 well culture plates (200 μl/well) and cultured overnight at 37° C. and 6% CO2. Nonadherent cells were removed by washing with 200 μl/well of fresh medium. Wells containing adherent cells (˜70% monocytes) were replenished with 100 μl of fresh medium.
Preparation of Test Compound Stock Solutions
Test compounds were dissolved in […]. Compound stock solutions were prepared to an initial concentration of […]. Stocks were diluted initially to 20-200 μM in complete media. Nine two-fold serial dilutions of each compound were then prepared in complete medium.
Treatment of Cells with Test Compounds and Activation of TNF Production with Lipopolysaccharide
One hundred microliters of each test compound dilution were added to microtiter wells containing adherent monocytes and 100 μl complete medium. Monocytes were cultured with test compounds for 60 min at which time 25 μl of complete medium containing 30 ng/ml lipopolysaccharide from E. coli K532 were added to each well. Cells were cultured an additional 4 hrs. Culture supernatants were then removed and TNF present in the supernatants was quantified using an ELISA.
Flat bottom 96 well Coming High Binding ELISA plates were coated overnight (4° C.) with 150 μL/well of 3 μg/ml murine anti-human TNFa MAb (R&D Systems #MAB210). Wells were then blocked 1 h at room temperature with 200 μL/well of CaCl2-free ELISA buffer supplemented to contain 20 mg/ml BSA (standard ELISA buffer: […], 150 mM NaCl, 2 mM CaCl2, 0.15 mM thimerosal, pH 7.4). Plates were washed and replenished with 100 μl of test supernatants (diluted 1:3) or standards. Standards consisted of eleven 1.5-fold serial dilutions from a stock of 1 ng/ml recombinant human TNF (R&D Systems). Plates were incubated at room temperature for 1 h on orbital shaker (300 rpm), washed and replenished with 100 μl/well of 0.5 jig/ml goat anti-human TNFa (R&D systems #AB-210-NA) biotinylated at a 4:1 ratio. Plates were incubate for 40 min, washed and replenished with 100 μl/well of alkaline phosphatase-conjugated streptavidin (Jackson ImmunoResearch #016-050-084) at 0.02 μg/ml. Plates were incubated 30 min, washed and replenished with 200 μl well of 1 mg/ml of p-nitrophenyl phosphate. After 30 min, plates were read at 405 nm on a Vmax plate reader.
Standard curve data were fit to a second order polynomial and unknown TNF-a concentrations determined from their OD by solving this equation for concentration. TNF concentrations were then plotted Vs test compound concentration using a second order polynomial. This equation was then used to calculate the concentration of test compounds causing a 50% reduction in TNF production.

With `N[C@@H](Cc1cccs1)C(=O)Nc1ccc2c(-c3ccncc3)c(-c3ccc(F)cc3)[nH]c2n1` [Compound 133, 6-(3′-(2-thienyl)-1′-oxo-2′-(L)-aminopropylamino)-3-(4-pyridyl)-2-(4-fluorophenyl)-7-aza-indole], the IC50 was under 20 µM.

Take `[N-]=[N+]=Nc1ccc(C[C@H](N)C(=O)Nc2ccc3c(-c4ccncc4)c(-c4ccc(F)cc4)[nH]c3n2)cc1` [Compound 135, 6-(3′-(4-azidophenyl)-1′-oxo-2′S-aminopropylamino)-3-(4-pyridyl)-2-(4-fluorophenyl)-7-aza-indole]: the IC50 was under 20 µM.

In the case of `N[C@@H](Cc1csc2ccccc12)C(=O)Nc1ccc2c(-c3ccncc3)c(-c3ccc(F)cc3)[nH]c2n1` [Compound 137, 6-(3′-(3-benzothienyl)-1′-oxo-2′S-aminopropylamino)-3-(4-pyridyl)-2-(4-fluorophenyl)-7-aza-indole], the IC50 is under 20 µM.

`N[C@@H](CCc1ccccc1)C(=O)Nc1ccc2c(-c3ccncc3)c(-c3ccc(F)cc3)[nH]c2n1` [Compound 139, 6-(4′-phenyl-1′-oxo-2′-(L)-aminobutylamino)-3-(4-pyridyl)-2-(4-fluorophenyl)-7-aza-indole]: the IC50 was under 20 µM.

Consider `N[C@H](CCc1ccccc1)C(=O)Nc1ccc2c(-c3ccncc3)c(-c3ccc(F)cc3)[nH]c2n1` [Compound 141, 6-(4′-phenyl-1′-oxo-2′-(D)-aminobutylamino)-3-(4-pyridyl)-2-(4-fluorophenyl)-7-aza-indole], for which the IC50 is under 20 µM.

As for `CC(C)COC(=O)n1c(-c2ccc(F)cc2)c(-c2ccncc2)c2ccc(NC(=O)CN)nc21` [Compound 143, 6-(2′-amino-1′-oxo-ethylamino)-3-(4-pyridyl)-2-(4-fluorophenyl)-1-isobutoxycarbonyl-7-aza-indole], the IC50 is under 20 µM.

In the case of `CC(C)(C)CNc1ccc2c(-c3ccncc3)c(-c3ccc(F)cc3)[nH]c2n1` [Compound 151, 6-(2′,2′-dimethylpropylamino)-3-(4-pyridyl)-2-(4-fluorophenyl)-7-aza-indole], the IC50 was under 20 µM.

As to `CC(C)CCNc1ccc2c(-c3ccncc3)c(-c3ccc(F)cc3)[nH]c2n1` [Compound 152, 6-(isoamylamino)-3-(4-pyridyl)-2-(4-fluorophenyl)-7-aza-indole], the IC50 was under 20 µM.

In the case of `CCC(CC)CNc1ccc2c(-c3ccncc3)c(-c3ccc(F)cc3)[nH]c2n1` [Compound 153, 6-(2′-ethylbutylamino)-3-(4-pyridyl)-2-(4-fluorophenyl)-7-aza-indole], the IC50 is under 20 µM.

For the compound `Fc1ccc(-c2[nH]c3nc(NCc4cccs4)ccc3c2-c2ccncc2)cc1` [Compound 154, 6-(2′-thienylmethylamino)-3-(4-pyridyl)-2-(4-fluorophenyl)-7-aza-indole], the IC50 is under 20 µM.

Take `CCNc1ccc2c(-c3ccncc3)c(-c3ccc(F)cc3)[nH]c2n1` [Compound 156, 6-(ethylamino)-3-(4-pyridyl)-2-(4-fluorophenyl)-7-aza-indole]: the IC50 is under 20 µM.

Take `Cn1c(-c2ccc(F)cc2)c(-c2ccncc2)c2ccc(NC(=O)CN)nc21` [Compound 158, 6(2′-amino-1′-oxo-ethylamino)-3-(4-pyridyl)-2-(4-fluorophenyl)-1-methyl-7-aza-indole]: the IC50 is under 20 µM.

The record behind these values is patent publication US6605634B2 (Amgen, Inc., priority 1996, dated 2003).
